Source: publication doi:10.1101/2021.04.08.439011v1 (biorxiv, 2021)

What was measured:
PFPK5(P. falciparum) = PFPK5(P. falciparum) (Plasmodium falciparum, UniProt P61075); conditions: 1 µM; binder
PIK3CD = PIK3CD (Homo sapiens, UniProt O00329); conditions: 1 µM; binder
FGFR2 = FGFR2 (Homo sapiens, UniProt P21802); conditions: 1 µM; binder
EGFR(L858R,T790M) = EGFR(L858R,T790M) (Homo sapiens, UniProt P00533, L858R/T790M); conditions: 1 µM; binder
VPS34 = VPS34 (Homo sapiens, UniProt Q8NEB9); conditions: 1 µM; binder
TRKB = TRKB (Homo sapiens, UniProt Q16620); conditions: 1 µM; binder
SGK2 = SGK2 (Homo sapiens, UniProt Q9HBY8); conditions: 1 µM; binder
CIT = CIT (Homo sapiens, UniProt O14578); conditions: 1 µM; binder
KIT = KIT (Homo sapiens, UniProt P10721); conditions: 1 µM; binder
PLK4 = PLK4 (Homo sapiens, UniProt O00444); conditions: 1 µM; binder
EPHB6 = EPHB6 (Homo sapiens, UniProt O15197); conditions: 1 µM; binder
TAK1 = TAK1 (Homo sapiens, UniProt O43318); conditions: 1 µM; binder
MST1 = MST1 (Homo sapiens, UniProt Q13043); conditions: 1 µM; binder
HCK = HCK (Homo sapiens, UniProt P08631); conditions: 1 µM; binder
MEK5 = MEK5 (Homo sapiens, UniProt Q13163); conditions: 1 µM; binder
ERK4 = ERK4 (Homo sapiens, UniProt P31152); conditions: 1 µM; binder
CLK1 = CLK1 (Homo sapiens, UniProt P49759); conditions: 1 µM; binder
JNK1 = JNK1 (Homo sapiens, UniProt P45983); conditions: 1 µM; binder
CDK2 = CDK2 (Homo sapiens, UniProt P24941); conditions: 1 µM; binder
PAK4 = PAK4 (Homo sapiens, UniProt O96013); conditions: 1 µM; binder
ABL1(T315I) = ABL1(T315I) (Homo sapiens, UniProt P00519, T315I); conditions: nonphosphorylated; 1 µM; binder
JAK2 = JAK2 (Homo sapiens, UniProt O60674); conditions: JH1 domain catalytic; binder
DDR2 = DDR2 (Homo sapiens, UniProt Q16832); conditions: 1 µM; binder
CDK9 = CDK9 (Homo sapiens, UniProt P50750); conditions: 1 µM; binder
RET(V804M) = RET(V804M) (Homo sapiens, UniProt P07949, V804M); conditions: 1 µM; binder
TAOK2 = TAOK2 (Homo sapiens, UniProt Q9UL54); conditions: 1 µM; binder
TLK1 = TLK1 (Homo sapiens, UniProt Q9UKI8); conditions: 1 µM; binder
SNARK = SNARK (Homo sapiens, UniProt Q9H093); conditions: 1 µM; binder
DLK = DLK (Homo sapiens, UniProt Q12852); conditions: 1 µM; binder
EPHB2 = EPHB2 (Homo sapiens, UniProt P29323); conditions: 1 µM; binder

Chain of DDR2 (Q16832 whole entry): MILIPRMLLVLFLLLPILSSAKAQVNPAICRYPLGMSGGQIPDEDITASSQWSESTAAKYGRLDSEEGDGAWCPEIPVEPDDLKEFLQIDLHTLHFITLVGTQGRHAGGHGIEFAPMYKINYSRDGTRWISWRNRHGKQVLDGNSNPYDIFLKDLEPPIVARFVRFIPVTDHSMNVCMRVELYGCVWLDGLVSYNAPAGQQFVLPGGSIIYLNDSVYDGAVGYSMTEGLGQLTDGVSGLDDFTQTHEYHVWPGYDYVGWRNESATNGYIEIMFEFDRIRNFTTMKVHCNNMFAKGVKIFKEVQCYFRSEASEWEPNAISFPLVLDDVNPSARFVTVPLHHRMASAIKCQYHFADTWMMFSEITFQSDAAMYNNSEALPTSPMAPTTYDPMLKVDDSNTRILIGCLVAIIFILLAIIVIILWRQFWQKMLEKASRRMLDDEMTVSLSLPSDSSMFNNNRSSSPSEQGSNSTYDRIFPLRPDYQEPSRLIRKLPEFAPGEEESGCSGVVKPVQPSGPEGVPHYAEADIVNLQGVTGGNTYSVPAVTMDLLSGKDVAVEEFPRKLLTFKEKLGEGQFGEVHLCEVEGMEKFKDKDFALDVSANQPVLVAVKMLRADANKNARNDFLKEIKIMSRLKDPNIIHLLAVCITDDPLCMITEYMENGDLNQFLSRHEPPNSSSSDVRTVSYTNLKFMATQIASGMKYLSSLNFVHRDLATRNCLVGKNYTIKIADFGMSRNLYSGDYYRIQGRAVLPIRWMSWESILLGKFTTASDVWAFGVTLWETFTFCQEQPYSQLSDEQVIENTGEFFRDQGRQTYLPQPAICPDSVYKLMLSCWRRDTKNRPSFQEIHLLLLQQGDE
Chain of TAK1 (O43318 whole entry): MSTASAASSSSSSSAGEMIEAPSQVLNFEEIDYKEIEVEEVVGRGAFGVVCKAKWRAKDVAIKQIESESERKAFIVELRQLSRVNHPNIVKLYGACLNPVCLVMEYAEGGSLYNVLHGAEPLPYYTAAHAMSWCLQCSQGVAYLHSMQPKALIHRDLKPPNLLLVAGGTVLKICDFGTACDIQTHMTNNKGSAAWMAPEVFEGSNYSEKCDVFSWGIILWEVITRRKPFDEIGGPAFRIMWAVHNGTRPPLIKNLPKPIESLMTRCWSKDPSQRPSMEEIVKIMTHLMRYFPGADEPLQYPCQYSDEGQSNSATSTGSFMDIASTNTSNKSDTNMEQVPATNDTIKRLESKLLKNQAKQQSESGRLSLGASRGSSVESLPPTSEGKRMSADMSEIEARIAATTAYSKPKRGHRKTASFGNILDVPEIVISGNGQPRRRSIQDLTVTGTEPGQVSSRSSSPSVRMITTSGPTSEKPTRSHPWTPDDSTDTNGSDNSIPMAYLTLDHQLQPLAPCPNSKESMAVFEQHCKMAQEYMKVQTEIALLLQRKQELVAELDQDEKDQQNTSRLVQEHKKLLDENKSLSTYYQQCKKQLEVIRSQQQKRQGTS
Chain of KIT (P10721 whole entry): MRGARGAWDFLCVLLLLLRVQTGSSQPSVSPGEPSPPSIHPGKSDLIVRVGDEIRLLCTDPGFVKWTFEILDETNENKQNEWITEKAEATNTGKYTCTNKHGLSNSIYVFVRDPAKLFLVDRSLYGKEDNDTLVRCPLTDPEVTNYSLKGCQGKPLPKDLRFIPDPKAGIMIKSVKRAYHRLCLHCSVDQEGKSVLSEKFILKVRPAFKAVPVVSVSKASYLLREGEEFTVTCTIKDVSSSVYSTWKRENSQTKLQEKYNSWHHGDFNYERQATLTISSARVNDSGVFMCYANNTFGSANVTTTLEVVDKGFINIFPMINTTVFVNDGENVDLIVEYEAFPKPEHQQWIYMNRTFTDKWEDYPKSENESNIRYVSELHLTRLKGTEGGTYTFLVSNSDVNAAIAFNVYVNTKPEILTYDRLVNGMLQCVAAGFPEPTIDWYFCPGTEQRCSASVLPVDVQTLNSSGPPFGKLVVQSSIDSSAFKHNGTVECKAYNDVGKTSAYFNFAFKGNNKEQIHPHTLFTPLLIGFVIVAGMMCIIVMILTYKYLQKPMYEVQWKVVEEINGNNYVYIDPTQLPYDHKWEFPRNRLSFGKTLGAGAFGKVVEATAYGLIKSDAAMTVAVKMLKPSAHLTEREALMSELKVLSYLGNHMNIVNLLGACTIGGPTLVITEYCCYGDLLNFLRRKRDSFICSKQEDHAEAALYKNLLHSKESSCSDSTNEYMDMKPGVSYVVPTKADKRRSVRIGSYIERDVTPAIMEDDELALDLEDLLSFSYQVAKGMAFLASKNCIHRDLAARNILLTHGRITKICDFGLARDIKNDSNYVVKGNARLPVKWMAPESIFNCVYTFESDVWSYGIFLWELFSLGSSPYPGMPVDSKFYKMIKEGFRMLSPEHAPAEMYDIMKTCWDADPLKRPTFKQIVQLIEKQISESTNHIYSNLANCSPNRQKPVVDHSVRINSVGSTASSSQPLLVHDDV
Chain of TAOK2 (Q9UL54 whole entry): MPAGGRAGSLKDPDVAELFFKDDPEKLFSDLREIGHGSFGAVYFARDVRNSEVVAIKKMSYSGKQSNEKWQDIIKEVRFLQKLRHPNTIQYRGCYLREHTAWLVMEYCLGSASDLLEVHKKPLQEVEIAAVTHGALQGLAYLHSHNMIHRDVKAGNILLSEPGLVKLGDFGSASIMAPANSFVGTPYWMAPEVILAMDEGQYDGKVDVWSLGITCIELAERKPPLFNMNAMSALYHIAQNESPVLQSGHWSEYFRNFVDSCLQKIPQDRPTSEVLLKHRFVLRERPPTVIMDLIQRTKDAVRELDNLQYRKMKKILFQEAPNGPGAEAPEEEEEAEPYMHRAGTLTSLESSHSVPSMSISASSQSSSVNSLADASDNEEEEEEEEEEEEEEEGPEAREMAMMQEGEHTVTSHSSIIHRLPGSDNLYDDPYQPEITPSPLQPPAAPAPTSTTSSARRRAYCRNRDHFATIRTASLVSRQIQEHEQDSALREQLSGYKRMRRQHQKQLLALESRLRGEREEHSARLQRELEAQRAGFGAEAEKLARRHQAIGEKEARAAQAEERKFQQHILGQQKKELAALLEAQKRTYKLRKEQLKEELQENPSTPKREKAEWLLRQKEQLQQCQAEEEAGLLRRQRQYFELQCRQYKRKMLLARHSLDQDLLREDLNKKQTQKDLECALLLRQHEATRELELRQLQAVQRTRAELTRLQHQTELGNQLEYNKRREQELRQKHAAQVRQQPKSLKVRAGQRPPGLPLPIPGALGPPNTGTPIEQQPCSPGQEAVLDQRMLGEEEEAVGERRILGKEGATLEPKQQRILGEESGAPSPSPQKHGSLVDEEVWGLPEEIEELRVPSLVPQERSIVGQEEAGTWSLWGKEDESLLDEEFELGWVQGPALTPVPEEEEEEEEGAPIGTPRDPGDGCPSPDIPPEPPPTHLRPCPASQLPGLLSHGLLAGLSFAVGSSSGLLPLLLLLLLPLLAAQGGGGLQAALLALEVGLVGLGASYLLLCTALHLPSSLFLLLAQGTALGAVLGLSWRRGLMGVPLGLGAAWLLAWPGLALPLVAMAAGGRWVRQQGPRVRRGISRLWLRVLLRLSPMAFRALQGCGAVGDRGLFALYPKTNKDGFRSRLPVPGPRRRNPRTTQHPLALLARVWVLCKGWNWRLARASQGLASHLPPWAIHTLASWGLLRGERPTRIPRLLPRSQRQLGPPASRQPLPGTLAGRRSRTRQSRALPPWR
Chain of EPHB6 (O15197 whole entry): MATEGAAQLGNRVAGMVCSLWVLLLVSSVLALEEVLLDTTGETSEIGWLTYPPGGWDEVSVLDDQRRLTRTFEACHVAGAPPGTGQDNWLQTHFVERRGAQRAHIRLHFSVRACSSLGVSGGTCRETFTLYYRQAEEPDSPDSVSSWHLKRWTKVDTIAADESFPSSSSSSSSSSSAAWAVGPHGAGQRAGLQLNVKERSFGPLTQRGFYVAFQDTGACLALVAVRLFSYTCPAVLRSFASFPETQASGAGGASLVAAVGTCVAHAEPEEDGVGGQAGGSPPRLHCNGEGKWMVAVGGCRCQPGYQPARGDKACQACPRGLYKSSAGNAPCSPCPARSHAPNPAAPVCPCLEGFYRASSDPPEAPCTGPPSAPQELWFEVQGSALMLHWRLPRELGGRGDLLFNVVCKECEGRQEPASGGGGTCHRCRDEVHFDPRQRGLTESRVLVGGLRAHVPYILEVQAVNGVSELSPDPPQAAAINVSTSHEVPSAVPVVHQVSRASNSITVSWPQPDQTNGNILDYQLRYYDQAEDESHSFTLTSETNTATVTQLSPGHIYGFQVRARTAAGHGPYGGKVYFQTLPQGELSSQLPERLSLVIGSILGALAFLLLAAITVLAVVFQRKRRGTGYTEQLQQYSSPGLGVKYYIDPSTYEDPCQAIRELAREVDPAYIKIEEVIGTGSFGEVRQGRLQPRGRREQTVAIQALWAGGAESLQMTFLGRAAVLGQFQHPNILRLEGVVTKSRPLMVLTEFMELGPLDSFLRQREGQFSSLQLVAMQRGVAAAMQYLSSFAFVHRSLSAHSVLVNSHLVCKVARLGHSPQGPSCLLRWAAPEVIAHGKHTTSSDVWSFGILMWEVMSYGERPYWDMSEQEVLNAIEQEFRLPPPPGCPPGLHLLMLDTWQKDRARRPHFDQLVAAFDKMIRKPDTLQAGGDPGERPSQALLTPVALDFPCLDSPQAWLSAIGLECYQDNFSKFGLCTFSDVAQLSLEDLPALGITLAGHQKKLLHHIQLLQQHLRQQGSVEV
Chain of SGK2 (Q9HBY8 whole entry): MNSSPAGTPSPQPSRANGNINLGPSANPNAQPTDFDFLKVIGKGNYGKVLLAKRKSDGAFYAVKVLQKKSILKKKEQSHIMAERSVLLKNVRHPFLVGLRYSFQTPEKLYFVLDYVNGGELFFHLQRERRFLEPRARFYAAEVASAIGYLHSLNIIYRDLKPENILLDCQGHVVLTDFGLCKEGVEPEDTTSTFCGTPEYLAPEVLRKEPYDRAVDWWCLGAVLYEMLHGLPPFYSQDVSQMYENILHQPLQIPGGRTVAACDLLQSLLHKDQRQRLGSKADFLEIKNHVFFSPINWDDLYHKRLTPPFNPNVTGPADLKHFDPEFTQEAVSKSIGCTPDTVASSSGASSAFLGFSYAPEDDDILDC

## CNc1ncc2cc(-c3ccc(-c4cccc(C)n4)cc3Cl)c(=O)n(C[C@H]3OC[C@H](N)CO3)c2n1 [compound 6, G-5555]
PFPK5(P. falciparum)
  Percent Control: 100%
PIK3CD
  Percent Control: 97%
FGFR2
  Percent Control: 100%
EGFR(L858R,T790M)
  Percent Control: 100%
VPS34
  Percent Control: 100%
TRKB
  Percent Control: 100%
SGK2
  Percent Control: 100%
CIT
  Percent Control: 100%
KIT
  Percent Control: 100%
PLK4
  Percent Control: 67%
EPHB6
  Percent Control: 9%
TAK1
  Percent Control: 92%
MST1
  Percent Control: 51%
HCK
  Percent Control: 100%
MEK5
  Percent Control: 0.2%
ERK4
  Percent Control: 100%
CLK1
  Percent Control: 100%
JNK1
  Percent Control: 41%
CDK2
  Percent Control: 100%
PAK4
  Percent Control: 77%
ABL1(T315I)
  Percent Control: 100%
JAK2
  Percent Control: 83%
DDR2
  Percent Control: 100%
CDK9
  Percent Control: 100%
RET(V804M)
  Percent Control: 100%
TAOK2
  Percent Control: 100%
TLK1
  Percent Control: 100%
SNARK
  Percent Control: 2%
DLK
  Percent Control: 100%
EPHB2
  Percent Control: 79%
